From patent US8846696B2, “Purine derivatives” (Cyclacel Limited, priority 2002, dated 2014)
Where two headings read alike, the source gives them in different places.

Experiments:
[1] = target: CDK4/cyclin D1 (Homo sapiens (Human), UniProt P11802); conditions: read-out: Kinase inhibition CDK4/cyclin D1 IC50
Protocol: (§3) Recombinant cyclin D1 was expressed in E. coli. […] Reactions were stopped on ice, followed by filtration through p81 filterplates or GF/C filterplates (for CDK4) (Whatman Polyfiltronics, Kent, UK), except for CDK7 where, after stopping reaction on ice, 10 μL of 10 mg/mL avidin was added to each well and further incubated for 10 min followed by filtration as per CDK2 assay. After washing 3 times with 75 mM aq orthophosphoric acid, plates were dried, scintillant added and incorporated radioactivity measured in a scintillation counter (TopCount, Packard Instruments, Pangbourne, Berks, UK). Compounds for kinase assay were made up as 10 mM stocks in DMSO and diluted into 10% DMSO in assay buffer.

[2] = system: Human tumour cell lines: A549, HT29, Saos-2; assay: 72-h MTT cytotoxicity assay, tumour cell lines A549, HT29, Saos-2; type: cell-based; conditions: for IC50: 72 h, read-out: In vitro anti-proliferative activity (72-h MTT IC50), Human tumour cell lines: A549, HT29, Saos-2; for C: IC50 cytotox. roscovitine/IC50 cytotox. compound: ratio to roscovitine
Protocol: (§1) In short: cells were seeded into 96-well plates according to doubling time and incubated overnight at 37° C. Test compounds were made up in DMSO and a ⅓ dilution series prepared in 100 μL cell media, added to cells (in triplicates) and incubated for 72 ho at 37° C. MTT was made up as a stock of 5 mg/mL in cell media and filter-sterilised. Media was removed from cells followed by a wash with 200 μL PBS. MTT solution was then added at 20 μL per well and incubated in the dark at 37° C. for 4 h. MTT solution was removed and cells again washed with 200 μL PBS. MTT dye was solubilised with 200 μL per well of DMSO with agitation.

[3] = target: ERK-2 (Homo sapiens (Human), UniProt P28482); assay: Kinase assay ERK-2; conditions: read-out: Kinase inhibition ERK2 IC50
Protocol: as §3

[4] = target: CDK7/cyclin H (Homo sapiens (Human), UniProt P50613); assay: Kinase assay CDK7/cyclin H; type: biochemical; conditions: read-out: Kinase inhibition CDK7/cyclin H IC50
Protocol: Reactions were stopped on ice, followed by filtration through p81 filterplates or GF/C filterplates (for CDK4) (Whatman Polyfiltronics, Kent, UK), except for CDK7 where, after stopping reaction on ice, 10 μL of 10 mg/mL avidin was added to each well and further incubated for 10 min followed by filtration as per CDK2 assay. After washing 3 times with 75 mM aq orthophosphoric acid, plates were dried, scintillant added and incorporated radioactivity measured in a scintillation counter (TopCount, Packard Instruments, Pangbourne, Berks, UK). Compounds for kinase assay were made up as 10 mM stocks in DMSO and diluted into 10% DMSO in assay buffer.

[5] = target: cyclic AMP-dependent kinase (PKA) catalytic subunit (Homo sapiens (Human), UniProt P17612); assay: Kinase assay PKA; conditions: read-out: Kinase inhibition PKA IC50
Protocol: as §3

[6] = target: CDK2/cyclin E (Homo sapiens (Human), UniProt P24941); assay: Kinase assay CDK2/cyclin E; type: biochemical; conditions: for IC50: read-out: Kinase inhibition CDK2/cyclin E IC50; for A × B: comparative in vitro efficacy; for B: IC50 CDK2 roscovitine/IC50 CDK2 compound: ratio to roscovitine
Protocol: as §3

[7] = target: CDK1/cyclin B (Homo sapiens (Human), UniProt P06493); assay: Kinase assay CDK1/cyclin B; type: biochemical; conditions: read-out: Kinase inhibition CDK1/cyclin B IC50
Protocol: as §3

[8] = 10 μM
Protocol: (§4) Calibration curves were prepared at 0, 1, and 10 μM in microsomes pre-incubated for 30 min and these were also treated with methanol containing olomoucine. All samples were then centrifuged and the supernatants analysed by liquid chromatography-mass spectrometry.
(§5) The chromatography column was a Supelco LC-ABZ, 50×4.6 mm, 5 μm zwitterionic column (Supelco Inc., Supelco Park, Bellefonte, Pa., USA). Gradient eluants consisted of methanol (A) and 0.1% formic acid in water (B). […] The flow rate was 1 mL/min throughout. […] Eluant from the detector passed, without splitting, into a Thernoquest LCQ ion trap mass spectrometer fitted with an electrospray source operated in positive mode. Mass spectrometer conditions were sheath gas 80, auxiliary gas 20 (both arbitrary units), capillary voltage 4 to 4.5 kV and heated capillary temperature 250 to 280° C. The mass range was 50-750. Scan time was controlled by the ion trap which was set to a maximum ion injection time of 200 ms or the time required to inject 2×10^8 ions; for each scan the system automatically used whichever time was reached first.
(§6) The peak area ration (test compound/internal standard) of the test incubation was then compared with the peak area ratios obtained fro the calibration curve of the test compound. From these values the concentration of test compound remaining after 30 min microsomal protein incubation was determined.

[9] = system: HeLa; assay: 72-h MTT assay HeLa; type: cell-based; conditions: Homo sapiens, read-out: 72-h MTT IC50, cervical adenocarcinoma
Protocol: as §1
(§2) Representative compounds of this invention were examined for their anti-proliferative effect against human tumour cell lines and immortalized non-transformed human cell lines (“normal” cell lines).

[10] = system: WI38; assay: 72-h MTT assay WI38; type: cell-based; conditions: Homo sapiens, WI-38, 72 h, read-out: 72-h MTT IC50; WI38, normal foetal lung fibroblast
Protocol: as §1, §2

[11] = system: Saos-2; assay: 72-h MTT assay Saos-2; type: cell-based; conditions: Homo sapiens, read-out: 72-h MTT IC50, Saos-2, osteosarcoma
Protocol: as §1, §2

[12] = system: cancer cell lines; assay: 72-h MTT assay, mean of cancer cell lines; type: cell-based; conditions: Homo sapiens, read-out: 72-h MTT IC50
Protocol: as §1, §2

[13] = system: Hs27; assay: 72-h MTT assay Hs27; type: cell-based; conditions: Homo sapiens, read-out: 72-h MTT IC50, Hs27, normal foreskin fibroblast
Protocol: as §1, §2

[14] = system: A549; assay: 72-h MTT assay A549; type: cell-based; conditions: Homo sapiens, read-out: 72-h MTT IC50, A549, lung carcinoma
Protocol: as §1, §2

[15] = system: MCF7; assay: 72-h MTT assay MCF7; type: cell-based; conditions: Homo sapiens, read-out: 72-h MTT IC50, MCF7, mammary adenocarcinoma
Protocol: as §1, §2

[16] = system: normal cell lines; assay: 72-h MTT assay, mean of normal cell lines; type: cell-based; conditions: Homo sapiens, read-out: 72-h MTT IC50
Protocol: as §1, §2

[17] = system: IMR90; assay: 72-h MTT assay IMR90; type: cell-based; conditions: Homo sapiens, IMR-90, 72 h, read-out: 72-h MTT IC50; IMR90, normal embryo lung fibroblast
Protocol: as §1, §2

[18] = system: HT-29; assay: 72-h MTT assay HT-29; type: cell-based; conditions: Homo sapiens, read-out: 72-h MTT IC50, HT-29, colorectal adenocarcinoma
Protocol: as §1, §2

[19] = system: K-562; assay: 72-h MTT assay K-562; type: cell-based; conditions: Homo sapiens, K562, 72 h, read-out: 72-h MTT IC50
Protocol: as §1, §2

[20] = system: CCRF-CEM; assay: 72-h MTT assay CCRF-CEM; type: cell-based; conditions: Homo sapiens, read-out: 72-h MTT IC50, acute lymphoblastic leukaemia
Protocol: as §1, §2

[21] = system: HL-60; assay: 72-h MTT assay HL-60; type: cell-based; conditions: Homo sapiens, read-out: 72-h MTT IC50, HL-60, acute promyelocytic leukaemia
Protocol: as §1, §2

[22] = Comparative in vitro metabolism assay (microsomal incubation)
Protocol: as §4, §5, §6

Sequence of CDK1/cyclin B (P06493 whole entry): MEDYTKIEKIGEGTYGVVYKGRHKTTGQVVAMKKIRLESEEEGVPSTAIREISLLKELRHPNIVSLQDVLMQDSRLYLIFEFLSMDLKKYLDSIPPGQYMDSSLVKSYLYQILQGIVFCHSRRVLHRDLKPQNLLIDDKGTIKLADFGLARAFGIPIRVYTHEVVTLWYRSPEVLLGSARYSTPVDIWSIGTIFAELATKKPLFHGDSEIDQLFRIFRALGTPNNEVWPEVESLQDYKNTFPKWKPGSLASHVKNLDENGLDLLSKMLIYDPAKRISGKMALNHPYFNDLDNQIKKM
Sequence of CDK1/cyclin B (P14635 whole entry partner): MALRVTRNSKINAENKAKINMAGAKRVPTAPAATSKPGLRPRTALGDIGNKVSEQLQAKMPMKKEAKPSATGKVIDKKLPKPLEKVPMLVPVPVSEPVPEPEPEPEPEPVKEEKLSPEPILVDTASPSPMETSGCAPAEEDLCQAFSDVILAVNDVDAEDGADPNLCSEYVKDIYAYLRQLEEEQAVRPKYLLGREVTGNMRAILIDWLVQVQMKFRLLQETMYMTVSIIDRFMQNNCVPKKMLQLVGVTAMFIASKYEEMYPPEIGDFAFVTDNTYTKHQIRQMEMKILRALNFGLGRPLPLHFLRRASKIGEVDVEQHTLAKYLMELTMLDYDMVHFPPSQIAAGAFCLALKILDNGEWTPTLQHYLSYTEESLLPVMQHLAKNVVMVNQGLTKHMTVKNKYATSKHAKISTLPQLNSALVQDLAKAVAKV
Sequence of ERK-2 (P28482 whole entry, species assumed): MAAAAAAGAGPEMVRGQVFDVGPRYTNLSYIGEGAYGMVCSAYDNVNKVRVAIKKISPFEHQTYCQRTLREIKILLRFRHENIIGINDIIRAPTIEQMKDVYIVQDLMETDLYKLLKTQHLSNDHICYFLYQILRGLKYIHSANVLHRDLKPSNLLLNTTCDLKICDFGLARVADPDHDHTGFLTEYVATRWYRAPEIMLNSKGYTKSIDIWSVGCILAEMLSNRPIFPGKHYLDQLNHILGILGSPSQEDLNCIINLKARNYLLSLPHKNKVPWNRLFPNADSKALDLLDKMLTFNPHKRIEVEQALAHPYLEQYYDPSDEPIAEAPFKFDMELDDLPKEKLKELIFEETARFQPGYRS
Sequence of CDK7/cyclin H (P50613 whole entry): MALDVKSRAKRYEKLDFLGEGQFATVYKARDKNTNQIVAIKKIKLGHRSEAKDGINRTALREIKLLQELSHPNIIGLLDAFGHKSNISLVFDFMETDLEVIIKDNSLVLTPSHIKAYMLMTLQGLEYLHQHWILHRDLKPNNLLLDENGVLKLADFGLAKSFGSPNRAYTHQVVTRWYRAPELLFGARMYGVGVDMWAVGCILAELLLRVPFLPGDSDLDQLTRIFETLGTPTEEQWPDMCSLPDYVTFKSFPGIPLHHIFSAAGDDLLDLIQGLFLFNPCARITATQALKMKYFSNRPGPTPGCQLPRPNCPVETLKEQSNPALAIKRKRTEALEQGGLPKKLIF
Sequence of CDK7/cyclin H (P51946 whole entry partner): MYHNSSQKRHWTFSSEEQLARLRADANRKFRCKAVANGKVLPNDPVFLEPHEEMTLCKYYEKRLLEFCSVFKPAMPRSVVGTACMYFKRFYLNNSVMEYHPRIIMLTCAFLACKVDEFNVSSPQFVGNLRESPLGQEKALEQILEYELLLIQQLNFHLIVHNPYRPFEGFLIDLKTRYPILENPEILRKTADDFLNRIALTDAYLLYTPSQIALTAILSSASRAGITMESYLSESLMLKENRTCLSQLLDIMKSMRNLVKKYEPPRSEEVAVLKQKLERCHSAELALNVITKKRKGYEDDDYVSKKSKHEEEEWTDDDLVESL
Sequence of CDK4/cyclin D1 (P11802 whole entry): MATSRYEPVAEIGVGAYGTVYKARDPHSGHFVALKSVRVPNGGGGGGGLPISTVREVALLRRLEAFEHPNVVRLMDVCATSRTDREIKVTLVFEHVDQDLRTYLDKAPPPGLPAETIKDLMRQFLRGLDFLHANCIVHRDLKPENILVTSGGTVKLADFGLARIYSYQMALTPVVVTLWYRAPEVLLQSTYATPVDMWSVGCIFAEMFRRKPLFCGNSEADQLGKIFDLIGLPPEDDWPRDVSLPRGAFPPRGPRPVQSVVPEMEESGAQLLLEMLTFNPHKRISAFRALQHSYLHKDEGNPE
Sequence of CDK4/cyclin D1 (P24385 whole entry partner): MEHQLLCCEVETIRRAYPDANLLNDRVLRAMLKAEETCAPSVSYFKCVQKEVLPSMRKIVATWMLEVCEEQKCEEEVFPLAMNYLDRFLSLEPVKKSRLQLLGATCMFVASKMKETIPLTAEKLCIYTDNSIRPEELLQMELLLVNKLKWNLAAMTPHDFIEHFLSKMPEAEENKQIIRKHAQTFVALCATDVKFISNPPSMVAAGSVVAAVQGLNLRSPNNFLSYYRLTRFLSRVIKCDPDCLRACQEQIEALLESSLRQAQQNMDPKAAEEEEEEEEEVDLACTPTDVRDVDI

Row | SMILES | IC50 [1] | IC50 [2] | IC50 [3] | IC50 [4] | IC50 [5] | IC50 [6] | IC50 [7] | C: IC50 cytotox. roscovitine/IC50 cytotox. compound [2] | % Drug after 30 min. microsomal incubation [8] | A × B [6] | B: IC50 CDK2 roscovitine/IC50 CDK2 compound [6] | also measured
1 | CC[C@@H](Nc1nc(NCc2cccnc2)c2ncn(C(C)C)c2n1)C(O)C(C)(C)C (mixture of isomers) [(3RS,4R)-4-{9-Isopropyl-6-[(pyridin-3-ylmethyl)-amino]-9H-purin-2-ylamino}-2,2-dimethyl-hexan-3-ol] | 24 µM | 19 µM | 51 µM | 1.6 µM | > 200 µM | 1 µM | 23 µM | – | – | – | – | –
2 | CC[C@@H](Nc1nc(NCc2cccnc2)c2ncn(C(C)C)c2n1)C(O)C(C)C (mixture of isomers) [(3RS,4R)-4-{9-Isopropyl-6-[(pyridin-3-ylmethyl)-amino]-9H-purin-2-ylamino}-2-methyl-hexan-3-ol] | 21 µM | 28 µM | 111 µM | 2.2 µM | 200 µM | 0.69 µM | 20 µM | – | – | – | – | –
3 | CCC(O)[C@@H](CC)Nc1nc(NCc2cccnc2)c2ncn(C(C)C)c2n1 (mixture of isomers) [(3RS,4R)-4-{9-Isopropyl-6-[(pyridin-3-ylmethyl)-amino]-9H-purin-2-ylamino}-hexan-3-ol] | 25 µM | 10 µM | 37 µM | 1.1 µM | > 200 µM | 0.22 µM | 12 µM | 1.1 | 70% | 1.0 | 0.5 | –
4 | CC[C@H](Nc1nc(NCc2cccnc2)c2ncn(C(C)C)c2n1)C(O)C(C)(C)C (mixture of isomers) [(3RS,4S)-4-{9-Isopropyl-6-[(pyridin-3-ylmethyl)-amino]-9H-purin-2-ylamino}-2,2-dimethyl-hexan-3-ol] | 13 µM | 15 µM | 23 µM | 3.5 µM | > 200 µM | 0.39 µM | 21 µM | 0.8 | 50% | 0.4 | 0.3 | –
5 | CC[C@H](Nc1nc(NCc2cccnc2)c2ncn(C(C)C)c2n1)C(O)C(C)C (mixture of isomers) [(3RS,4S)-4-{9-Isopropyl-6-[(pyridin-3-ylmethyl)-amino]-9H-purin-2-ylamino}-2-methyl-hexan-3-ol] | 31 µM | 19 µM | 67 µM | 3.5 µM | > 200 µM | 1.1 µM | 22 µM | – | – | – | – | –
6 | CCC(O)[C@H](CC)Nc1nc(NCc2cccnc2)c2ncn(C(C)C)c2n1 (mixture of isomers) [(3RS,4S)-4-{9-Isopropyl-6-[(pyridin-3-ylmethyl)-amino]-9H-purin-2-ylamino}-hexan-3-ol] | 11 µM | 5.5 µM | 17 µM | 1.5 µM | > 200 µM | 0.11 µM | 13 µM | 2.1 | 73% | 2.1 | 1.0 | –
7 | CC[C@H](Nc1nc(NCc2cccnc2)c2ncn(C(C)C)c2n1)[C@@H](C)O [(2R3S)-3-{9-Isopropyl-6-[(pyridin-3-ylmethyl)-amino]-9H-purin-2-ylamino}-pentan-2-ol] | – | 0.8 µM | 20 µM | – | > 200 µM | – | 2.2 µM | – | 67% | 7.5 | – | IC50 [9]: 1.4 ± 0.2 µM; IC50 [10]: 6.1 ± 0.3 µM; IC50 [11]: 1.2 ± 0.2 µM; IC50 [12]: 1.1 ± 0.3 µM; IC50 [13]: 5.9 ± 0.3 µM; IC50 [14]: 0.9 ± 0.1 µM; IC50 [15]: 0.7 ± 0.1 µM; IC50 [16]: > 10 µM; IC50 [17]: > 20 µM; IC50 [18]: 1.1 ± 0.2 µM
8 | CC[C@@H](Nc1nc(NCc2cccnc2)c2ncn(C(C)C)c2n1)[C@H](C)O [(2S3R)-3-{9-Isopropyl-6-[(pyridin-3-ylmethyl)-amino]-9H-purin-2-ylamino}-pentan-2-ol] | – | 1.5 µM | 23 µM | – | > 200 µM | – | 4.9 µM | – | 90% | 3.1 | – | IC50 [9]: 2.9 ± 0.2 µM; IC50 [10]: 11.2 ± 1.2 µM; IC50 [11]: 2.8 ± 0.1 µM; IC50 [12]: 2.3 ± 0.5 µM; IC50 [13]: 10.2 ± 0.6 µM; IC50 [14]: 2.1 ± 0.4 µM; IC50 [15]: 1.6 ± 0.2 µM; IC50 [16]: > 10 µM; IC50 [17]: > 20 µM; IC50 [18]: 2.3 ± 0.6 µM
9 | CC[C@@H](Nc1nc(NCc2cccnc2)c2ncn(C(C)C)c2n1)C(C)(C)O [(3R)-3-{9-Isopropyl-6-[(pyridin-3-ylmethyl)-amino]-9H-purin-2-ylamino}-2-methyl-pentan-2-ol] | 7.5 µM | 5.6 µM | 91 µM | 3.1 µM | > 200 µM | 0.2 µM | 6.2 µM | 2.1 | 84% | 1.3 | 0.5 | –
10 | CC[C@H](Nc1nc(NCc2cccnc2)c2ncn(C(C)C)c2n1)C(C)(C)O [(3S)-3-{9-Isopropyl-6-[(pyridin-3-ylmethyl)-amino]-9H-purin-2-ylamino}-2-methyl-pentan-2-ol] | 12 µM | 4 µM | 35 µM | 2.5 µM | > 200 µM | 0.07 µM | 4.4 µM | 2.9 | 78% | 3.2 | 1.4 | IC50 [9]: 4.7 ± 0.5 µM; IC50 [19]: 8.4 ± 1.2 µM; IC50 [20]: 3.7 ± 0.3 µM; IC50 [10]: > 20 µM; IC50 [11]: 3.9 ± 0.8 µM; IC50 [12]: 4 ± 2 µM; IC50 [13]: 11.3 ± 0.7 µM; IC50 [14]: 3.6 ± 0.2 µM; IC50 [15]: 2.3 ± 0.3 µM; IC50 [16]: > 10 µM; IC50 [17]: > 20 µM; IC50 [18]: 2.3 ± 0.9 µM; IC50 [21]: 3 ± 0.2 µM
11 | CC[C@H](CO)Nc1nc(NCc2ccccc2)c2ncn(C(C)C)c2n1 [Roscovitine, roscovitine] | – | – | – | – | – | – | – | – | – | – | – | % Drug after 30 min. microsomal incubation ([22]; 10 μM compound, 30 min, microsomal protein 0.2 mg, NADPH): 33%; A: % Compound remaining/% roscovitine remaining ([22]; ratio to roscovitine): 1.0
